Laboratory results from patent US9365612B2, “Caspase inhibitors” (United States of America as represented by the Secretary, …, priority 2010, dated 2016).

What was measured:
caspase 1 [1] = biological target: T1, caspase 1 (Homo sapiens, UniProt P29466); assay: caspase 1 inhibition assay with caged fluorescent peptide substrate (Ac-LEHD-AMC); type: biochemical; conditions: 2 nM enzyme, 20 minutes at room temperature, fluorescence detection, read-out: IC50 versus caspase 1
T1 sequence (P29466 120-297 limits assumed): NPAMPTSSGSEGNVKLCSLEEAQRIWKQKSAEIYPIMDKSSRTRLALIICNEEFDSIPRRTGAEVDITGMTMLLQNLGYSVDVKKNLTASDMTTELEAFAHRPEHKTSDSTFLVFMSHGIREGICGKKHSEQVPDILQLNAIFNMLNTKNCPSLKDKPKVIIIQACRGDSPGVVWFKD
T1 sequence (P29466 317-404 limits assumed): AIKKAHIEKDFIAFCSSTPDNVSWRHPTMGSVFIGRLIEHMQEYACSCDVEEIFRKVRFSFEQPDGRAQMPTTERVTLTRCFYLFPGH
Experimental: Each agent's inhibitory capacity versus caspase 1 was evaluated. A well established protocol was utilized whereby caspase 1 activity is measured utilizing 2 nM enzyme in the presence and absence of compound and a caged fluorescent peptide substrate (Ac-LEHD-AMC). Wannamaker et al, Journal of Pharmacology and Experimental Therapeutics, 2007, 321, 509-516. The compounds were examined across a titration series (0.325 nM→57.5 μM) and data was recorded via fluorescence detection following an incubation period of 20 minutes at room temperature.

caspase 1 [2] = biological target: T1, caspase 1; assay: commercial panel of caspases (Reaction Biology Corporation), caspase 1; type: biochemical; conditions: read-out: IC50 versus caspase 1
Excerpt: (§1) Having established that the compounds (3), (4) and (16) are potent inhibitors of caspase 1, the selectivity of these agents was examined. […] Wannamaker, W.; Davies, R.; Namchuk, M.; Pollard, J.; Ford, P.; Ku, G.; Decker, C.; Charifson, P.; Weber, P.; Germann, U. A.; Kuida, K.; Randle, J. C. R. J. Pharmacol. Exp. Ther. 2007, 321, 509-516. […] VRT-043198 (2b), NCGC00185682 (3), NCGC00183434 (4) and NCGC00183681 (16) were entered within a commercial panel of caspases offered by Reaction Biology Corporation. […] A particularly interesting aspect of these molecules was the high selectivity for caspase 1. […] All other activities were about the 1 μM threshold.

[3] = aqueous degradation study by LCMS over 96 hours; type: physicochemical; conditions: for aqueous stability in acidic conditions (pH 2): pH 2, LCMS; for aqueous stability in acidic conditions (pH 2) / aqueous stability in neutral conditions (water, pH 7) / aqueous stability in basic conditions (pH 8): over 96 hours; for aqueous stability in neutral conditions (water, pH 7): pH 7, LCMS; for aqueous stability in basic conditions (pH 8): pH 8, LCMS
Experimental: In order to evaluate the agent's stability profile, VX-765 (1), VRT-043198 (2b), NCGC00185682 (3), NCGC00183434 (4) and NCGC00183681 (16) were examined within an aqueous degradation study at neutral (pH 7) acidic (pH 2) and basic (pH 8) conditions. The study was conducted by monitoring the degradation of each agent by LCMS analysis at various time points over 96 hours (FIG. 8). […] This degradation was amplified in both basic and acidic conditions. Conversely, the active agent VRT-043198 (2b) was very stable in both water and acidic conditions and its degradation at pH 8 was moderate.

Caco-2 = assay: bi-directional Caco-2 permeability; type: in vitro ADME
Experimental: (§2) Given the aqueous stability of these new agents, selected ADME properties for chosen compounds were also examined. VX-765 (1), VRT-043198 (2b), NCGC00185682 (3), NCGC00183434 (4) and NCGC00183681 (16) were evaluated for a profile of bi-directional Caco-2 permeability, plasma protein binding (both human and rat) and microsomal stability (both human and rat) studies (FIG. 9, Table 2). […] The clearance rates (Clint) and t ½ for VRT-043198 (2b), NCGC00185682 (3), NCGC00183434 (4) and NCGC00183681 (16) were all moderate.

Pgp = biological target: T2, Pgp (Homo sapiens, UniProt P08183); assay: Caco-2 control experiment with verapamil (Pgp efflux); type: in vitro ADME
T2 construct: endogenous in cells; host or cells: Caco-2
T2 sequence (P08183 whole entry): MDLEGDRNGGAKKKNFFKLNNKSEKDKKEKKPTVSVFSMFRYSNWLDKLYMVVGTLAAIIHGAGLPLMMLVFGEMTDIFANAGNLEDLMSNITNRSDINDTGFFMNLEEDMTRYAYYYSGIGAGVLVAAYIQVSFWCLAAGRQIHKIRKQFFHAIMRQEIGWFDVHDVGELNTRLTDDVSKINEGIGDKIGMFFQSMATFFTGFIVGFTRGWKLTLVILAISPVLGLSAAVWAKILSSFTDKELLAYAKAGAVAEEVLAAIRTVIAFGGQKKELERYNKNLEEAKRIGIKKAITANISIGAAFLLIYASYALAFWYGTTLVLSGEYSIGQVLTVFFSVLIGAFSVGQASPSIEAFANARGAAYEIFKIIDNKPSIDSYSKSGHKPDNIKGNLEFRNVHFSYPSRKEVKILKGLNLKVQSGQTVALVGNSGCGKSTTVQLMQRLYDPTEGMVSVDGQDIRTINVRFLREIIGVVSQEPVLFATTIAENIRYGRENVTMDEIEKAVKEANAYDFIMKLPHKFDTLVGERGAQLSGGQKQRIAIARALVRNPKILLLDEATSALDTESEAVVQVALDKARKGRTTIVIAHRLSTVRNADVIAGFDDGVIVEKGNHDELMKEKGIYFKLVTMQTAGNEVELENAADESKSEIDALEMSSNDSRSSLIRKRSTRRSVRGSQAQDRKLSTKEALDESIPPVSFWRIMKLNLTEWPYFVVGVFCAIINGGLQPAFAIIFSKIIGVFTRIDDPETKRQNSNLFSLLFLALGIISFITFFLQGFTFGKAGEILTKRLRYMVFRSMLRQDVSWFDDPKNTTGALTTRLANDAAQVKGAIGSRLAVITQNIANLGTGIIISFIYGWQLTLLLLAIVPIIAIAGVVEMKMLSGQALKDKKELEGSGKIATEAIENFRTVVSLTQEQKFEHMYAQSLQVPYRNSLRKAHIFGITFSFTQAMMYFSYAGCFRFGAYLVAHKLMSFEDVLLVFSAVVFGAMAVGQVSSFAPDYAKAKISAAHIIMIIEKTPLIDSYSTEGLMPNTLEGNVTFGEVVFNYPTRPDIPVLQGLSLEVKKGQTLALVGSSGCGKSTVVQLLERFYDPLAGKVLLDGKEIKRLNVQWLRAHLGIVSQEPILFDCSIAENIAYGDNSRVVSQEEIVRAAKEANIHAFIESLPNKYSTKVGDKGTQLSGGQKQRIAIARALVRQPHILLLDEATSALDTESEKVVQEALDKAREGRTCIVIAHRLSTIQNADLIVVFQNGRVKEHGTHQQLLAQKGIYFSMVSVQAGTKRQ
Experimental: as §2

[4] = microsomal stability (both human and rat); type: in vitro ADME; conditions: for clearance rates (Clint) / t ½: species not given
Experimental: as §2

caspase 4 [5] = biological target: T3, caspase 4 (Homo sapiens, UniProt P49662); assay: commercial panel of caspases (Reaction Biology Corporation), caspase 4; type: biochemical; conditions: read-out: IC50 versus caspase 4
T3 construct: purchased Reaction Biology Corporation
T3 sequence (P49662 81-270 limits assumed): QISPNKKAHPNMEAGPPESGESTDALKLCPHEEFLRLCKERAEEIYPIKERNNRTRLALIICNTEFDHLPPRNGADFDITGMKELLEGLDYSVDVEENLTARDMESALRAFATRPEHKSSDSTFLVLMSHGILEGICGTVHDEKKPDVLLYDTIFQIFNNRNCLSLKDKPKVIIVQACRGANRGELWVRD
T3 sequence (P49662 290-377 limits assumed): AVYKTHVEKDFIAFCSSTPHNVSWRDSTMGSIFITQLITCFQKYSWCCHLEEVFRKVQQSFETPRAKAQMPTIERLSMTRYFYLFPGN
Excerpt: as §1

caspase 8 [6] = biological target: T4, caspase 8 (Homo sapiens, UniProt Q14790); assay: commercial panel of caspases (Reaction Biology Corporation), caspase 8; type: biochemical; conditions: read-out: IC50 versus caspase 8
T4 sequence (Q14790 217-374 limits assumed): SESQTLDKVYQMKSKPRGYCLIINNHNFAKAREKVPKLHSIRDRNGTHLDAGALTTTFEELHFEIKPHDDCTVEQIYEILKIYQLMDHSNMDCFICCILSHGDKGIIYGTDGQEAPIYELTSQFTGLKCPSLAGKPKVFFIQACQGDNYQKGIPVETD
T4 sequence (Q14790 385-479 limits assumed): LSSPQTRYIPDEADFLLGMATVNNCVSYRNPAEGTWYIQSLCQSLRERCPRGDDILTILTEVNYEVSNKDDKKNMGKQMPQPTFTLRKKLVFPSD
Excerpt: as §1

caspase 6 [7] = biological target: T5, caspase 6 (Homo sapiens, UniProt P55212); assay: commercial panel of caspases (Reaction Biology Corporation), caspase 6; type: biochemical; conditions: read-out: IC50 versus caspase 6
T5 sequence (P55212 24-179 limits assumed): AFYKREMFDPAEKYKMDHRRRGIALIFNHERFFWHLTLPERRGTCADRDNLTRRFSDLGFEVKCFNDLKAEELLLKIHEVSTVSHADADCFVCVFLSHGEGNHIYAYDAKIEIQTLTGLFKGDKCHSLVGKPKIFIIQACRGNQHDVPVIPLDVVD
T5 sequence (P55212 194-293 limits assumed): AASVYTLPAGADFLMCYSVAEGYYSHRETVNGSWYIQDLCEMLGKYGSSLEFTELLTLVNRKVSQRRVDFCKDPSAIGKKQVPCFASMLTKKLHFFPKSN
Excerpt: as §1

caspase 9 [8] = biological target: T6, caspase 9 (Homo sapiens, UniProt P55211); assay: commercial panel of caspases (Reaction Biology Corporation), caspase 9; type: biochemical; conditions: read-out: IC50 versus caspase 9
T6 construct: purchased Reaction Biology Corporation
T6 sequence (P55211 1-315 limits assumed): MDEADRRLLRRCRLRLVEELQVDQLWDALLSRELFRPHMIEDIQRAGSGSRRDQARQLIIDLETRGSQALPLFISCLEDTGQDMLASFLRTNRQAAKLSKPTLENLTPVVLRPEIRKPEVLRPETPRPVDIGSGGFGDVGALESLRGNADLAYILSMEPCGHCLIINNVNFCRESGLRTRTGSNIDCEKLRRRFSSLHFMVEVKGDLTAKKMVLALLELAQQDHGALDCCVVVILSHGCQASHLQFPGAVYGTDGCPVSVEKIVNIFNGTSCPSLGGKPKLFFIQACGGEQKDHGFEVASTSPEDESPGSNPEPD
T6 sequence (P55211 331-416 limits assumed): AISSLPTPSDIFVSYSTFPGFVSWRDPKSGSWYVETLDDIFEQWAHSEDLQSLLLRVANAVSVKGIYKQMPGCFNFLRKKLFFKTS
Excerpt: as §1

caspase 14 = biological target: T7, caspase 14 (Homo sapiens, UniProt P31944); assay: commercial panel of caspases (Reaction Biology Corporation), caspase 14; type: biochemical; conditions: read-out: IC50 versus caspase 14
T7 construct: purchased Reaction Biology Corporation
T7 sequence (P31944 6-146 limits assumed): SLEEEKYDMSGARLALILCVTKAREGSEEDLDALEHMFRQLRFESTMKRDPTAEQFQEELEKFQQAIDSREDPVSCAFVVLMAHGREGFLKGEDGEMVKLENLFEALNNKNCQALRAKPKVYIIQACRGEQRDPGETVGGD
T7 sequence (P31944 153-242 limits assumed): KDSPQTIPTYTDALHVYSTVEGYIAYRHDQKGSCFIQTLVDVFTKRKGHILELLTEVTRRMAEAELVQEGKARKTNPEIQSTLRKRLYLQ
Excerpt: as §1

[9] = plasma protein binding, human; type: in vitro ADME; conditions: relative to VX-765 (1) and NCGC00185682 (3)
Experimental: as §2

[10] = plasma protein binding, rat; type: in vitro ADME; conditions: relative to VX-765 (1) and NCGC00185682 (3)
Experimental: as §2

caspase 1 [11] = biological target: T1, caspase 1; conditions: reported by Randle and coworkers (Wannamaker et al. 2007); read-out: Ki versus caspase 1; cited from earlier work
caspase 4 [12] = biological target: T3, caspase 4; conditions: reported by Randle and coworkers (Wannamaker et al. 2007); read-out: Ki versus caspase 4; cited from earlier work
caspase 8 [13] = biological target: T4, caspase 8; conditions: reported by Randle and coworkers (Wannamaker et al. 2007); read-out: Ki versus caspase 8; cited from earlier work
caspase 6 [14] = biological target: T5, caspase 6; conditions: reported by Randle and coworkers (Wannamaker et al. 2007); read-out: Ki versus caspase 6; cited from earlier work
caspase 9 [15] = biological target: T6, caspase 9; conditions: reported by Randle and coworkers (Wannamaker et al. 2007); read-out: Ki versus caspase 9; cited from earlier work
[16] = system: caspases 3, 7, granzyme B, cathepsin B and tyrpsin; conditions: reported by Randle and coworkers; cited from earlier work

Structure (SMILES)	IC50 (caspase 1 [1]) [nM]	IC50 (caspase 1 [2]) [nM]	aqueous stability in acidic conditions (pH 2) [3]	aqueous stability in neutral conditions (water, pH 7) [3]	Caco-2 A to B permeability (Caco-2)	Caco-2 B to A levels (Caco-2)	Pgp efflux substrate (Pgp)	clearance rates (Clint) ([4]; liver microsomes)	t ½ ([4]; liver microsomes)	aqueous stability in basic conditions (pH 8) [3]	free fraction in protein binding assay [9]	free fraction in protein binding assay [10]	IC50 (caspase 9 [8]) [nM]	IC50 (caspase 14) [nM]	other results
CCOC(=O)CC(C#N)NC(=O)C1CCCN1C(=O)C(NC(=O)c1ccc(N)c(Cl)c1)C(C)(C)C (stereo not shown) [NCGC00185682 (3)]	145	43.4	exceptionally stable	exceptionally stable	moderately better levels	high	substrates for Pgp efflux	moderate	moderate	–	–	–	–	–	degradation in basic conditions ([3]; basic (pH 8), after 22 hours): fully degraded; degradation in liver microsomes without NADPH ([4]; without NADPH as a cofactor): slight degree of degradation
CC(C)(C)[C@H](NC(=O)c1ccc(N)c(Cl)c1)C(=O)N1CCC[C@H]1C(=O)N[C@H](C=O)CC(=O)O [VRT-043198 (2b), reference compound]	11.5	0.204	very stable	very stable	–	–	–	moderate	moderate	moderate	significantly higher	significantly higher	5.07	58.5	IC50 (caspase 4 [5]): 14.5 nM; IC50 (caspase 8 [6]): 3.3 nM; IC50 (caspase 6 [7]): > 10 µM; Ki (caspase 1 [11]): < 1 nM; Ki (caspase 4 [12]): < 1 nM; Ki (caspase 8 [13]): 100 nM; Ki (caspase 6 [14]): 560 nM; Ki (caspase 9 [15]): 1030 nM; activity versus the remaining targets [16]: little activity
CCO[C@@H]1OC(=O)C[C@@H]1NC(=O)[C@@H]1CCCN1C(=O)[C@@H](NC(=O)c1ccc(N)c(Cl)c1)C(C)(C)C [VX-765 (1), reference compound]	–	–	amplified	moderate degradation	moderately better levels	high	substrates for Pgp efflux	–	–	amplified	–	–	–	–	degradation at pH 2 ([3]; pH 2, after 3.5 hours): 40%; compound decomposed in water ([3]; water (pH 7), after 48 hours): over 50%; metabolism by liver microsomes ([4]; liver microsomes): minimal ability to be metabolized; half-life ([4]; liver microsomes, read-out: t ½): > 6.53 days

The next lines start with results.

IC50 (caspase 1 [1]) [nM]	IC50 (caspase 1 [2]) [nM]	aqueous stability in acidic conditions (pH 2) [3]	aqueous stability in neutral conditions (water, pH 7) [3]	Caco-2 A to B permeability (Caco-2)	Caco-2 B to A levels (Caco-2)	Pgp efflux substrate (Pgp)	clearance rates (Clint) ([4]; liver microsomes)	t ½ ([4]; liver microsomes)	aqueous stability in basic conditions (pH 8) [3]	free fraction in protein binding assay [9]	free fraction in protein binding assay [10]	Structure (SMILES)	IC50 (caspase 9 [8]) [nM]	IC50 (caspase 14) [nM]	other results
20.4	2.58	resistant to degradation	resistant to degradation	–	–	–	moderate	moderate	resistant to degradation	significantly higher	significantly higher	CC(C)(C)C(NC(=O)c1ccc(N)c(Cl)c1)C(=O)N1CCCC1C(=O)NC(C#N)Cc1nnn[nH]1 (stereo not shown) [NCGC00183681 (16)]	91.5	–	–
0.316	0.023	moderate to good	moderate to good	–	–	–	moderate	moderate	exceedingly stable	significantly higher	significantly higher	CC(C)(C)C(NC(=O)c1ccc(N)c(Cl)c1)C(=O)N1CCCC1C(=O)NC(C#N)CC(=O)O (stereo not shown) [NCGC00183434 (4)]	–	801	degradation in acidic conditions ([3]; acidic (pH 2), after 72 hours): 50%; degradation in neutral conditions ([3]; neutral (pH 7), after 72 hours): 50%; persistence in aqueous conditions ([3]; suggested from the degradation data): > 24 h
